Source: patent US7118895B2, “Process for producing aglycon by using diglycosidase and flavor-improved food containing the aglycon and converting agent to be used in the process” (Amano Enzyme Inc., priority 2000, dated 2006)

Test system: Crude diglycosidase
Assay: Examination of temperature in the conversion into isoflavone aglycons by diglycosidase using soybean materials
Format: biochemical, Penicillium multicolor IAM7153
Set-up: Decomposition efficiency of glycitin family in roasted soy flour / Decomposition efficiency of daidzin family in roasted soy flour / Decomposition efficiency of genistin family in soymilk / Decomposition efficiency of daidzin family in soymilk / Decomposition efficiency of glycitin family in defatted soybean / Decomposition efficiency of daidzin family in defatted soybean: concentration or dose not given beside the values
Method in brief: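 Soybean materials (50 mg) suspended in 20 mM acetate buffer pH 4.0 reacted with crude diglycosidase diluted to 1.88 AU/mL at 80, 65, 55, 45, 37 or 30° C. Reactions stopped with ethanol at 0, 1, 3 and 6 h; isoflavone glycosides and aglycons in supernatant detected by HPLC.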

[1] = 30° C., heat treatment of enzyme no, reaction time 0 h
[2] = 30° C., heat treatment of enzyme no, reaction time 1 h
[3] = 30° C., heat treatment of enzyme no, reaction time 3 h
[4] = 30° C., heat treatment of enzyme no, reaction time 6 h
[5] = 30° C., heat treatment of enzyme yes, reaction time 6 h
[6] = 30 °C, heat treatment of enzyme: no, 0 h
[7] = 30 °C, heat treatment of enzyme: no, 1 h
[8] = 30 °C, heat treatment of enzyme: no, 3 h
[9] = 30 °C, heat treatment of enzyme: no, 6 h
[10] = 30 °C, heat treatment of enzyme: yes, 6 h
[11] = 45° C., heat treatment of enzyme no, reaction time 0 h
[12] = 45° C., heat treatment of enzyme no, reaction time 1 h
[13] = 45° C., heat treatment of enzyme no, reaction time 3 h
[14] = 45° C., heat treatment of enzyme no, reaction time 6 h
[15] = 45° C., heat treatment of enzyme yes, reaction time 6 h
[16] = 45 °C, heat treatment of enzyme: no, 0 h
[17] = 45 °C, heat treatment of enzyme: no, 1 h
[18] = 45 °C, heat treatment of enzyme: no, 3 h
[19] = 45 °C, heat treatment of enzyme: no, 6 h
[20] = 45 °C, heat treatment of enzyme: yes, 6 h
[21] = 55° C., heat treatment of enzyme no, reaction time 0 h
[22] = 55° C., heat treatment of enzyme no, reaction time 1 h
[23] = 55° C., heat treatment of enzyme no, reaction time 3 h
[24] = 55° C., heat treatment of enzyme no, reaction time 6 h
[25] = 55° C., heat treatment of enzyme yes, reaction time 6 h
[26] = 55 °C, heat treatment of enzyme: no, 0 h
[27] = 55 °C, heat treatment of enzyme: no, 1 h
[28] = 55 °C, heat treatment of enzyme: no, 3 h
[29] = 55 °C, heat treatment of enzyme: no, 6 h
[30] = 55 °C, heat treatment of enzyme: yes, 6 h
[31] = 65° C., heat treatment of enzyme no, reaction time 0 h
[32] = 65° C., heat treatment of enzyme no, reaction time 1 h
[33] = 65° C., heat treatment of enzyme no, reaction time 3 h
[34] = 65° C., heat treatment of enzyme no, reaction time 6 h
[35] = 65° C., heat treatment of enzyme yes, reaction time 6 h
[36] = 65 °C, heat treatment of enzyme: no, 0 h
[37] = 65 °C, heat treatment of enzyme: no, 1 h
[38] = 65 °C, heat treatment of enzyme: no, 3 h
[39] = 65 °C, heat treatment of enzyme: no, 6 h
[40] = 65 °C, heat treatment of enzyme: yes, 6 h
[41] = 80° C., heat treatment of enzyme no, reaction time 0 h
[42] = 80° C., heat treatment of enzyme no, reaction time 1 h
[43] = 80° C., heat treatment of enzyme no, reaction time 3 h
[44] = 80° C., heat treatment of enzyme no, reaction time 6 h
[45] = 80° C., heat treatment of enzyme yes, reaction time 6 h
[46] = 80 °C, heat treatment of enzyme: no, 0 h
[47] = 80 °C, heat treatment of enzyme: no, 1 h
[48] = 80 °C, heat treatment of enzyme: no, 3 h
[49] = 80 °C, heat treatment of enzyme: no, 6 h
[50] = 80 °C, heat treatment of enzyme: yes, 6 h

Structure (SMILES): O=C(O)CC(=O)OC[C@H]1O[C@@H](Oc2cc(O)c3c(=O)c(-c4ccc(O)cc4)coc3c2)[C@H](O)[C@@H](O)[C@@H]1O [malonylgenistin, 6″-O-malonylgenistin]
- Decomposition efficiency of genistin family in concentrated soybean protein [1]: not detected
- Decomposition efficiency of genistin family in defatted soybean [1]: 47.0%
- Decomposition efficiency of genistin family in concentrated soybean protein [2]: not detected
- Decomposition efficiency of genistin family in defatted soybean [2]: 51.3%
- Decomposition efficiency of genistin family in concentrated soybean protein [3]: not detected
- Decomposition efficiency of genistin family in defatted soybean [3]: 49.1%
- Decomposition efficiency of genistin family in concentrated soybean protein [4]: not detected
- Decomposition efficiency of genistin family in defatted soybean [4]: 45.6%
- Decomposition efficiency of genistin family in concentrated soybean protein [5]: not detected
- Decomposition efficiency of genistin family in defatted soybean [5]: 49.5%
- Decomposition efficiency of genistin family in roasted soy flour [6]: not detected
- Decomposition efficiency of genistin family in soymilk [6]: 58.5%
- Decomposition efficiency of genistin family in roasted soy flour [7]: not detected
- Decomposition efficiency of genistin family in soymilk [7]: 56.5%
- Decomposition efficiency of genistin family in roasted soy flour [8]: not detected
- Decomposition efficiency of genistin family in soymilk [8]: 47.9%
- Decomposition efficiency of genistin family in roasted soy flour [9]: not detected
- Decomposition efficiency of genistin family in soymilk [9]: 36.1%
- Decomposition efficiency of genistin family in roasted soy flour [10]: not detected
- Decomposition efficiency of genistin family in soymilk [10]: 57.7%
- Decomposition efficiency of genistin family in concentrated soybean protein [11]: not detected
- Decomposition efficiency of genistin family in defatted soybean [11]: 47.0%
- Decomposition efficiency of genistin family in concentrated soybean protein [12]: not detected
- Decomposition efficiency of genistin family in defatted soybean [12]: 49.0%
- Decomposition efficiency of genistin family in concentrated soybean protein [13]: not detected
- Decomposition efficiency of genistin family in defatted soybean [13]: 46.8%
- Decomposition efficiency of genistin family in concentrated soybean protein [14]: not detected
- Decomposition efficiency of genistin family in defatted soybean [14]: 44.2%
- Decomposition efficiency of genistin family in concentrated soybean protein [15]: not detected
- Decomposition efficiency of genistin family in defatted soybean [15]: 48.1%
- Decomposition efficiency of genistin family in roasted soy flour [16]: not detected
- Decomposition efficiency of genistin family in soymilk [16]: 57.8%
- Decomposition efficiency of genistin family in roasted soy flour [17]: not detected
- Decomposition efficiency of genistin family in soymilk [17]: 49.4%
- Decomposition efficiency of genistin family in roasted soy flour [18]: not detected
- Decomposition efficiency of genistin family in soymilk [18]: 34.7%
- Decomposition efficiency of genistin family in roasted soy flour [19]: not detected
- Decomposition efficiency of genistin family in soymilk [19]: 20.7%
- Decomposition efficiency of genistin family in roasted soy flour [20]: not detected
- Decomposition efficiency of genistin family in soymilk [20]: 57.2%
- Decomposition efficiency of genistin family in concentrated soybean protein [21]: not detected
- Decomposition efficiency of genistin family in defatted soybean [21]: 47.0%
- Decomposition efficiency of genistin family in concentrated soybean protein [22]: not detected
- Decomposition efficiency of genistin family in defatted soybean [22]: 48.8%
- Decomposition efficiency of genistin family in concentrated soybean protein [23]: not detected
- Decomposition efficiency of genistin family in defatted soybean [23]: 46.1%
- Decomposition efficiency of genistin family in concentrated soybean protein [24]: not detected
- Decomposition efficiency of genistin family in defatted soybean [24]: 43.4%
- Decomposition efficiency of genistin family in concentrated soybean protein [25]: not detected
- Decomposition efficiency of genistin family in defatted soybean [25]: 47.8%
- Decomposition efficiency of genistin family in roasted soy flour [26]: not detected
- Decomposition efficiency of genistin family in soymilk [26]: 59.1%
- Decomposition efficiency of genistin family in roasted soy flour [27]: not detected
- Decomposition efficiency of genistin family in soymilk [27]: 46.9%
- Decomposition efficiency of genistin family in roasted soy flour [28]: not detected
- Decomposition efficiency of genistin family in soymilk [28]: 32.5%
- Decomposition efficiency of genistin family in roasted soy flour [29]: not detected
- Decomposition efficiency of genistin family in soymilk [29]: 20.4%
- Decomposition efficiency of genistin family in roasted soy flour [30]: not detected
- Decomposition efficiency of genistin family in soymilk [30]: 53.3%
- Decomposition efficiency of genistin family in concentrated soybean protein [31]: not detected
- Decomposition efficiency of genistin family in defatted soybean [31]: 47.0%
- Decomposition efficiency of genistin family in concentrated soybean protein [32]: not detected
- Decomposition efficiency of genistin family in defatted soybean [32]: 48.9%
- Decomposition efficiency of genistin family in concentrated soybean protein [33]: not detected
- Decomposition efficiency of genistin family in defatted soybean [33]: 45.2%
- Decomposition efficiency of genistin family in concentrated soybean protein [34]: not detected
- Decomposition efficiency of genistin family in defatted soybean [34]: 41.1%
- Decomposition efficiency of genistin family in concentrated soybean protein [35]: not detected
- Decomposition efficiency of genistin family in defatted soybean [35]: 39.7%
- Decomposition efficiency of genistin family in roasted soy flour [36]: not detected
- Decomposition efficiency of genistin family in soymilk [36]: 58.5%
- Decomposition efficiency of genistin family in roasted soy flour [37]: not detected
- Decomposition efficiency of genistin family in soymilk [37]: 48.9%
- Decomposition efficiency of genistin family in roasted soy flour [38]: not detected
- Decomposition efficiency of genistin family in soymilk [38]: 40.6%
- Decomposition efficiency of genistin family in roasted soy flour [39]: not detected
- Decomposition efficiency of genistin family in soymilk [39]: 31.8%
- Decomposition efficiency of genistin family in roasted soy flour [40]: not detected
- Decomposition efficiency of genistin family in soymilk [40]: 44.6%
- Decomposition efficiency of genistin family in concentrated soybean protein [41]: not detected
- Decomposition efficiency of genistin family in defatted soybean [41]: 47.0%
- Decomposition efficiency of genistin family in concentrated soybean protein [42]: not detected
- Decomposition efficiency of genistin family in defatted soybean [42]: 43.8%
- Decomposition efficiency of genistin family in concentrated soybean protein [43]: not detected
- Decomposition efficiency of genistin family in defatted soybean [43]: 32.5%
- Decomposition efficiency of genistin family in concentrated soybean protein [44]: not detected
- Decomposition efficiency of genistin family in defatted soybean [44]: 20.9%
- Decomposition efficiency of genistin family in concentrated soybean protein [45]: not detected
- Decomposition efficiency of genistin family in defatted soybean [45]: 20.1%
- Decomposition efficiency of genistin family in roasted soy flour [46]: not detected
- Decomposition efficiency of genistin family in soymilk [46]: 57.8%
- Decomposition efficiency of genistin family in roasted soy flour [47]: not detected
- Decomposition efficiency of genistin family in soymilk [47]: 50.4%
- Decomposition efficiency of genistin family in roasted soy flour [48]: not detected
- Decomposition efficiency of genistin family in soymilk [48]: 37.7%
- Decomposition efficiency of genistin family in roasted soy flour [49]: not detected
- Decomposition efficiency of genistin family in soymilk [49]: 24.1%
- Decomposition efficiency of genistin family in roasted soy flour [50]: not detected
- Decomposition efficiency of genistin family in soymilk [50]: 22.9%
